Data reported in paper PMC11477965, “Synthesis and Anti-Liver Fibrosis Research of Aspartic Acid Derivatives” (Molecules, 2024).
“Also recorded” adds a separate entry of the source. Like-named read-outs stand apart in the source and are kept apart here. Where a SMILES comes first, the peptide text is derived from it.

Tests used:
COL1A1 promoter = COL1A1 promoter luciferase reporter inhibition assay in LX-2 cells; type: cell-based, human; conditions: for inhibition at 500 µM: read-out: Inhibitory Rate (%) of COL1A1 promotor; for relative fluorescence unit (RFU) of COL1A1 promotor: mean ± SD, n = 3, Control 124874.7 ± 10750.9;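 on all read-outs here: Anti-fibrotic screen: luciferase reporter driven by the COL1A1 promoter in human hepatic stellate LX-2 cells, compounds applied in complete medium in 96-well plates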
Description: A total of 32 target compounds, the lead compound L-Asp, and the positive control epigallocatechin gallate (EGCG), known for its anti-hepatic fibrotic activity [29], were tested for inhibitory effects on COL1A1 promoter activity at a concentration of 0.5 mM.
The LX-2 cells at 90% confluent were transfected with the plasmid of pGL4.17-COL1A1 promoter using Lipofectamine 2000 (Invitrogen, 11668019, Carlsbad, CA, USA) with Opti-MEM serum-free medium (Gibco, 1930104). After culturing for 6 h, the cells were replaced with a complete medium and seeded in 96-well plates for 24 h. The compound to be tested was prepared using a complete medium and added to the 96-well plate. After 24 h, Bright-Glo Luciferase Assay System (Promega, Madison, WI, USA) was used to detect the activity of COL1A1 promoter and the assaying inhibition rate.

[1] = SRB cytotoxicity assay in LX-2 cells; type: cell-based, human; conditions: human, LX-2 cells, SRB assay
Description: (§1) Their cytotoxicity in LX-2 cells was assessed across various concentrations using the SRB assay, and the cytotoxic concentrations (CC50) were determined. The selectivity index (SI), calculated as the ratio of CC50 to the […] (IC50), was employed to evaluate the compounds’ effects on the COL1A1 promoter (Table 2).
(§2) The LX-2 cells were seeded in a 96-well plate when reaching 90% confluent. After 24 h, the compound to be tested was prepared using a complete medium and added to the 96-well plate for 24 h. After washing with PBS, the cells were fixed with 10% (wt/vol) trichloroacetic acid for 1 h, washed with deionized water and dried completely and, after staining with SRB for 20 min, the excess dye was washed with 1% acetic acid (vol/vol) three times. The dye bound to the protein was dissolved with 10 mM Tris base solution and OD values were determined at […].

LX-2 cells [2] = test: SRB cytotoxicity assay in LX-2 cells; type: cell-based, human; conditions: CC50 in LX-2 cells / IC50 on COL1A1 promoter
Description: as §1, §2

LX-2 cells [3] = test: LPS-induced activation of LX-2 cells, fibro-genic proteins (western blot); type: cell-based, human; conditions: LPS 1 μg/mL, 50, 100, 200, and 500 μmol/L, 24 h
Description: Taking the results of Figure 3 and Figure 4 together, it seems that compounds 41 and 8a alleviate inflammation and inhibit liver fibrosis through the IKKβ-NF-κB signaling pathway, as indicated in Figure 5.
(§3) After the confluence of LX-2 cells reached 90%, the cells were treated with serum-free medium for 24 h. 2 ng/mL TGFβ1 or 1 μg/mL LPS were used in combination with compounds of different concentrations for 24 h. The samples of cells were lysed in RIPA buffer supplemented with protease inhibitor cocktail (Roche) and separated by SDS-PAGE. After the proteins were transferred to the PVDF membrane, 5% skim milk in TBS-T buffer was used to block them at room temperature for 2 h. Specific primary and secondary antibodies were used to detect the target protein. Finally, the blot was visualized using the Tanon 5200 system (Tanon, Shanghai, China) and the protein expression of GAPDH was used as the internal reference.

[4] = system: IKKβ-NF-κB signaling pathway; test: LPS-induced inflammation in LX-2 cells (western blot); type: cell-based, human; conditions: 24 h; for LPS-induced phosphorylation and baseline expression of IKKβ, NF-κB phosphorylation and expression: LPS 1 μg/mL, 50, 100, 200, and 500 μmol/L; for IL-6 expression / inhibition of inflammatory factors: LPS 1 μg/mL; for inhibition of inflammatory factors: 500 μM bands scanned
Description: Inflammation is crucial in the onset and progression of liver fibrosis, and fibrosis can further exacerbate tissue inflammation. […] To assess the anti-inflammatory effects of Compounds 41 and 8a, LX-2 cells were pre-incubated in serum-free medium for 24 h before LPS stimulation, followed by treatment with different concentrations of the compounds in serum-free medium containing 1 μg/mL LPS for another 24 h. Changes in inflammatory cytokine protein levels were analyzed using western blotting.
The IKKβ-NF-κB signaling pathway has been closely linked to the severity of liver fibrosis, with IKKβ serving as the primary catalytic subunit responsible for NF-κB activation. Therefore, this study investigated the NF-κB pathway by measuring IKKβ kinase activity. […] To evaluate the effects of the target compounds on LPS-induced inflammatory cytokines, four concentrations (50, 100, 200 and 500 μmol/L) were tested, and the results were analyzed by grayscale scanning of western blot bands using ImageJ software (version 1.53t), with normalization to GAPDH protein levels.
as §3

[5] = system: mRNA expression of COL1A1, TGFβ1, and MMP2; test: RT-qPCR of fibro-genic mRNA in TGFβ1-activated LX-2 cells; type: cell-based, human; conditions: TGFβ1 2 ng/mL, 24 h
Description: (§4) To evaluate the anti-fibrotic efficacy in vitro, we assessed the downregulatory effects of ten active compounds (3, 4c, 4d, 8a, 9, 28a, 32a, 41, 43 and 45) and L-Asp on fibro-genic gene expression (fibronectin, COL1A1, TGFβ, α-SMA, CTGF, and TIMP1) using western blot analysis. LX-2 cells were activated with TGFβ1 (2 ng/mL) and concurrently treated with each compound (100 μmol/L) for 24 h.
The LX-2 cells were seeded in a 6-well plate and cultured in a complete medium at 37 °C in a 5% CO2 environment until reaching 90% confluence. After culture without serum medium for 24 h, the cells were treated with 2 ng/mL TGFβ1 or 1 μg/mL LPS and the right concentration of compounds for 24 h. Total RNA was extracted using TRIzol reagent and purified by NucleoSpin RNA Clean-up Kit (Macherey-Nagel, Munich, Germany). Total RNA was reverse-transcribed into […] using a Transcriptor First Strand cDNA Synthesis Kit (Roche, Basel, Switzerland). The relative expression levels of the target gene were determined using a TaqMan probe with an ABI Q3 quantitative real-time PCR system, while GAPDH was utilized as an internal control for mRNA expression. The fold change of target mRNA expression was calculated using Equation 2^−∆∆Ct.

[6] = system: fibro-genic gene expression (fibronectin, COL1A1, TGFβ, α-SMA, CTGF, and TIMP1); test: Western blot of fibro-genic proteins in TGFβ1-activated LX-2 cells; type: cell-based, human; conditions: TGFβ1 2 ng/mL, 24 h; for expression of fibro-genic genes (western blot): compound 100 μmol/L
Description: as §4, §3

[7] = Homo sapiens, LX-2, LX-2 cells, read-out: IC50 to inhibit the activity of COL1A1 promoter by 50%
[8] = Homo sapiens, LX-2 cells, 0.5 mM, 24 h
[9] = 24 h, read-out: CC50, cytotoxic concentration required to inhibit the growth of LX-2 cells by 50%

| IC50 (COL1A1 promoter; [7]) | IC50 (COL1A1 promoter; LX-2 cells, read-out: IC50 to inhibit the activity of COL1A1 promoter by 50%) | Compound | inhibition at 500 µM (COL1A1 promoter; [8]) | relative fluorescence unit (RFU) of COL1A1 promotor (COL1A1 promoter; LX-2 cells) | CC50 at 24 h [1, 9] | SI, selectivity index (CC50/IC50) (LX-2 cells [2]) | melting point | protein expression of COL1A1, fibronectin, α-SMA, and CTGF (LX-2 cells [3]) | LPS-induced phosphorylation and baseline expression of IKKβ, NF-κB phosphorylation and expression [4] | IL-6 expression [4] | inhibition of inflammatory factors [4] | mRNA expression of COL1A1, TGFβ1, and MMP2 [5] | expression of fibro-genic genes (western blot) [6] | protein levels of fibronectin, COL1A1, and α-SMA following TGFβ1 stimulation ([6]; different concentrations) | inhibition at 500 µM (COL1A1 promoter; Homo sapiens, LX-2, 24 h) | IC50 (COL1A1 promoter; Homo sapiens, LX-2, read-out: IC50 to inhibit the activity of COL1A1 promoter by 50%) | CC50 at 24 h ([1]; read-out: CC50 in LX-2 cells) |
| --- | --- | --- | --- | --- | --- | --- | --- | --- | --- | --- | --- | --- | --- | --- | --- | --- | --- |
| 327 ± 17.1 µM |  | CC(C)(C)OC(=O)C[C@H](NC(=O)OCC1c2ccccc2-c2ccccc21)C(=O)NCCO [Compound 3, Tert-butyl (S)-3-((((9H-fluoren-9-yl)methoxy)carbonyl)amino)-4-((2-hydroxyethyl)amino)-4-oxobutanoate] | 81.5 ± 5.62% | 23056.9 ± 7017.3 RFU | 660 ± 24.6 µM | 2.01 | 93.2 to 95.6 °C |  |  |  |  |  |  |  |  |  |  |
| 30 µM | 30.6 ± 0.3 µM | COC(=O)[C@H]1C[C@H](Oc2cc(Cl)nn3c(-c4ccc(OC)c(OC)c4)cnc23)CN1C(=O)OC(C)(C)C [Compound 41, 1-(tert-butyl)-2-methyl-(2R,4S)-4-((6-chloro-3-(3,4-dimethoxyphenyl)imidazo [1,2-b]pyridazin-8-yl)oxy)pyrrolidine-1,2-dicarboxylate] | 66.7 ± 1.96% | 41555.6 ± 2445.9 RFU | 510 ± 51.5 µM | 16.68 |  | significantly reducing; also recorded: potent inhibition | dose-dependent reduction | significantly suppressed | superior inhibitory effects | markedly decreased | significantly suppressed | notably inhibited; also recorded: reduced the protein levels of fibronectin, COL1A1, and α-SMA in a dose-dependent manner |  |  |  |
| 298 ± 51.7 µM |  | COc1ccc(-c2cnc3c(O[C@@H]4CN[C@@H](C(=O)O)C4)cc(C)nn23)cc1OC [Compound 45, (2R,4S)-4-((3-(3,4-dimethoxyphenyl)-6-methylimidazo [1,2-b]pyridazin-8-yl)oxy)pyrrolidine-2-carboxylic acid] | 69.6 ± 8.48% | 37918.9 ± 10579.6 RFU | 632 ± 11.2 µM | 2.12 |  |  |  |  |  |  |  |  |  |  |  |
|  |  | C[C@H](N)C(=O)N[C@@H](CC(=O)O)C(=O)O [Compound 8a, L-alanyl-L-aspartic acid] (H-Ala-Asp-OH) |  | 63265.3 ± 16582.4 RFU | 13900 µM | 13.16 |  | significantly reducing | dose-dependent reduction | significantly suppressed | superior inhibitory effects |  | no significant inhibitory effect |  | 49.3 ± 13.3% | 1050 ± 111 µM | 13000 µM |

| Compound | IC50 (COL1A1 promoter; [7]) | IC50 (COL1A1 promoter; LX-2 cells, read-out: IC50 to inhibit the activity of COL1A1 promoter by 50%) | inhibition at 500 µM (COL1A1 promoter; [8]) | relative fluorescence unit (RFU) of COL1A1 promotor (COL1A1 promoter; LX-2 cells) | CC50 at 24 h [1, 9] | SI, selectivity index (CC50/IC50) (LX-2 cells [2]) | melting point | protein expression of COL1A1, fibronectin, α-SMA, and CTGF (LX-2 cells [3]) | LPS-induced phosphorylation and baseline expression of IKKβ, NF-κB phosphorylation and expression [4] | IL-6 expression [4] | inhibition of inflammatory factors [4] | mRNA expression of COL1A1, TGFβ1, and MMP2 [5] | expression of fibro-genic genes (western blot) [6] | protein levels of fibronectin, COL1A1, and α-SMA following TGFβ1 stimulation ([6]; different concentrations) | inhibition at 500 µM (COL1A1 promoter; Homo sapiens, LX-2, 24 h) | IC50 (COL1A1 promoter; Homo sapiens, LX-2, read-out: IC50 to inhibit the activity of COL1A1 promoter by 50%) | CC50 at 24 h ([1]; read-out: CC50 in LX-2 cells) |
| --- | --- | --- | --- | --- | --- | --- | --- | --- | --- | --- | --- | --- | --- | --- | --- | --- | --- |
| CC[C@@H]1C2C[C@H](O)CC[C@]2(C)C2CC[C@@]3(C)C(CCC3[C@H](C)CCC(=O)N[C@@H](CC(=O)O)C(=O)O)C2[C@@H]1O (stereo partly drawn) [Compound 9, ((4R)-4-((3R,6R,7R,10S,13R)-6-ethyl-3,7-dihydroxy-10,13-dimethylhexadecahydro-1H-cyclopenta[a]phenanthren-17-yl)pentanoyl)-L-aspartic acid] | 270 ± 47.9 µM |  | 97.4 ± 3.53% | 3188.3 ±4407.2 RFU | 351 ± 19.4 µM | 1.30 | 108.2 to 110.6 °C |  |  |  |  |  |  |  |  |  |  |
